Measured values: patent US20200131196A1 (Mount Tam Therapeutics, Inc., priority 2017, published 2020)
Read-outs that look alike come from different tables or passages of the source.

Tests used:
G-402 = assay: OncoPanel cell proliferation assay, G-402; format: cell-based, human
Procedure: (§1) Cells were grown in RPMI 1640, 10% FBS, 2 mM L-alanyl-L-glutamine, 1 mM Na pyruvate, or a special medium. Cells were seeded into 384-well plates and incubated in a humidified atmosphere of 5% CO2 at 37° C. Compounds were added the day following cell seeding. At the same time, a time zero untreated cell plate was generated. After a 3-day incubation period, cells were fixed and stained to allow fluorescence imaging of nuclei. Compounds (1 mM stock solutions) were serially diluted in half-log steps from the highest test concentration ([…]), and assayed over 10 concentrations with a maximum assay concentration of 0.1% DMSO. Automated fluorescence microscopy was carried out using a Molecular Devices ImageXpress Micro XL high-content imager, and images were collected with a 4× objective. 16-bit TIFF images were acquired and analyzed with MetaXpress 5.1.0.41 software.
(§2) Cell proliferation was measured by the fluorescence intensity of an incorporated nuclear dye. The output is referred to as the relative cell count, where the measured nuclear intensity is transformed to percent of control (POC) using the following formula: […]
(§3) Cellular response parameters were calculated using nonlinear regression to a sigmoidal single-site dose response model:
(§4) EC50 is the test compound concentration at the curve inflection point or half the effective response (parameter C of the fitted curve solution). GI50 is the concentration needed to reduce the observed growth by half (midway between the curve maximum and the time zero value). “Cell Count Activity Area” is an estimate of the integrated area above the curve (Barretina, et al. The Cancer Cell Line Encyclopedia enables predictive modelling of anticancer drug sensitivity. Nature 483: 603-607). […] In rare instances, values <0 or >10 may be observed. […] Curve-fitting, calculations, and report generation was performed using a custom data reduction engine and MathIQ based software (AIM).

AsPC-1 = assay: OncoPanel cell proliferation assay, AsPC-1
Procedure: Cells were seeded into 384-well plates and incubated in a humidified atmosphere of 5% CO2 at 37° C. Compounds were added the day following cell seeding. At the same time, a time zero untreated cell plate was generated. After a 3-day incubation period, cells were fixed and stained to allow fluorescence imaging of nuclei. Compounds (1 mM stock solutions) were serially diluted in half-log steps from the highest test concentration (1 micromol), and assayed over 10 concentrations with a maximum assay concentration of 0.1% DMSO. Automated fluorescence microscopy was carried out using a Molecular Devices ImageXpress Micro XL high-content imager, and images were collected with a 4× objective. 16-bit TIFF images were acquired and analyzed with MetaXpress 5.1.0.41 software.
GI50 is the concentration needed to reduce the observed growth by half (midway between the curve maximum and the time zero value). […] In rare instances, values <0 or >10 may be observed. […] Curve-fitting, calculations, and report generation was performed using a custom data reduction engine and MathIQ based software (AIM).

SK-N-AS = assay: OncoPanel cell proliferation assay, SK-N-AS; format: cell-based, human
Procedure: as §1, §2, §3, §4

A431 = assay: OncoPanel cell proliferation assay, A431; format: cell-based, human
Procedure: as §1, §2, §3, §4

ST486 = assay: OncoPanel cell proliferation assay, ST486; format: cell-based, human
Procedure: as §1, §2, §3, §4

NCI-H510A = assay: OncoPanel cell proliferation assay, NCI-H510A; format: cell-based, human
Procedure: as §1, §2, §3, §4

[1] = Homo sapiens, read-out: Cell Count EC50
[2] = Homo sapiens, read-out: Cell Count GI50
[3] = Homo sapiens, read-out: Cell Count IC50

SMILES: CO[C@H]1C[C@@H]2CC[C@@H](C)[C@@](O)(O2)C(=O)C(=O)N2CCCC[C@H]2C(=O)O[C@H]([C@H](C)C[C@H]2C[C@H]3C[C@@H]2C[C@@H]3O)CC(=O)[C@H](C)/C=C(\C)[C@@H](O)[C@@H](OC)C(=O)[C@H](C)C[C@H](C)/C=C/C=C/C=C/1C [Formula II, C37-[(1R,2S,4R,5S)-5-hyhroxybicyclo[2.2.1]heptane] rapamycin]
- Relative cell count (%) Mean (G-402; 1.00E+00 microM): 25.8%
- Relative cell count (%) Mean (G-402; 1.00E-01 microM): 28.4%
- Relative cell count (%) Mean (G-402; 1.00E-02 microM): 40.5%
- Relative cell count (%) Mean (G-402; 1.00E-03 microM): 63.7%
- Relative cell count (%) Mean (G-402; 1.01E-04 microM): 100.0%
- Relative cell count (%) Mean (G-402; 3.16E-01 microM): 27.5%
- Relative cell count (%) Mean (G-402; 3.17E-02 microM): 36.6%
- Relative cell count (%) Mean (G-402; 3.17E-03 microM): 52.6%
- Relative cell count (%) Mean (G-402; 3.18E-04 microM): 86.8%
- Relative cell count (%) Mean (G-402; 3.18E-05 microM): 97.8%
- EC50 (G-402; [1]): 1.13 nM
- GI50 (G-402; [2]): 1.51 nM
- IC50 (G-402; [3]): 2.87 nM
- Cell Count Activity Area (AsPC-1; AsPC-1): 1.68
- Relative cell count (%) Mean (AsPC-1; AsPC-1, 1.00E+00 microM): 70.3%
- Relative cell count (%) Mean (AsPC-1; AsPC-1, 1.00E-01 microM): 74.4%
- Relative cell count (%) Mean (AsPC-1; AsPC-1, 1.00E-02 microM): 89.3%
- Relative cell count (%) Mean (AsPC-1; AsPC-1, 1.00E-03 microM): 90.9%
- Relative cell count (%) Mean (AsPC-1; AsPC-1, 1.01E-04 microM): 105.4%
- Relative cell count (%) Mean (AsPC-1; AsPC-1, 3.16E-01 microM): 77.3%
- Relative cell count (%) Mean (AsPC-1; AsPC-1, 3.17E-02 microM): 81.7%
- Relative cell count (%) Mean (AsPC-1; AsPC-1, 3.17E-03 microM): 90.9%
- Relative cell count (%) Mean (AsPC-1; AsPC-1, 3.18E-04 microM): 97.5%
- Relative cell count (%) Mean (AsPC-1; AsPC-1, 3.18E-05 microM): 104.0%
- EC50 (AsPC-1; Homo sapiens, ASPC1): 8.6 nM
- EC50 (AsPC-1; Homo sapiens, ASPC1, read-out: Cell Count EC50): 8.56 nM
- GI50 (AsPC-1; Homo sapiens, ASPC1, read-out: Cell Count GI50): 246 nM
- IC50 (AsPC-1; Homo sapiens, ASPC1, read-out: Cell Count IC50): > 1000 nM
- Cell Count Activity Area (SK-N-AS): 3.12
- Relative cell count (%) Mean (SK-N-AS; 1.00E+00 microM): 49.7%
- Relative cell count (%) Mean (SK-N-AS; 1.00E-01 microM): 54.0%
- Relative cell count (%) Mean (SK-N-AS; 1.00E-02 microM): 55.3%
- Relative cell count (%) Mean (SK-N-AS; 1.00E-03 microM): 77.8%
- Relative cell count (%) Mean (SK-N-AS; 1.01E-04 microM): 99.5%
- Relative cell count (%) Mean (SK-N-AS; 3.16E-01 microM): 49.5%
- Relative cell count (%) Mean (SK-N-AS; 3.17E-02 microM): 55.1%
- Relative cell count (%) Mean (SK-N-AS; 3.17E-03 microM): 70.3%
- Relative cell count (%) Mean (SK-N-AS; 3.18E-04 microM): 89.7%
- Relative cell count (%) Mean (SK-N-AS; 3.18E-05 microM): 97.7%
- EC50 (SK-N-AS; [1]): 1.41 nM
- GI50 (SK-N-AS; [2]): 4.82 nM
- IC50 (SK-N-AS; [3]): 422 nM
- Cell Count Activity Area (A431): 1.43
- Relative cell count (%) Mean (A431; 1.00E+00 microM): 71.4%
- Relative cell count (%) Mean (A431; 1.00E-01 microM): 80.3%
- Relative cell count (%) Mean (A431; 1.00E-02 microM): 85.0%
- Relative cell count (%) Mean (A431; 1.00E-03 microM): 94.6%
- Relative cell count (%) Mean (A431; 1.01E-04 microM): 103.1%
- Relative cell count (%) Mean (A431; 3.16E-01 microM): 75.3%
- Relative cell count (%) Mean (A431; 3.17E-02 microM): 81.8%
- Relative cell count (%) Mean (A431; 3.17E-03 microM): 96.4%
- Relative cell count (%) Mean (A431; 3.18E-04 microM): 102.0%
- Relative cell count (%) Mean (A431; 3.18E-05 microM): 100.9%
- EC50 (A431; Homo sapiens, A-431, Skin, Head/Neck, summary Table 5, read-out: EC50): 12 nM
- EC50 (A431; Homo sapiens, A-431, read-out: Cell Count EC50): 12.1 nM
- GI50 (A431; Homo sapiens, A-431, read-out: Cell Count GI50): > 1000 nM
- IC50 (A431; Homo sapiens, A-431, read-out: Cell Count IC50): > 1000 nM
- Cell Count Activity Area (ST486): 3.05
- Relative cell count (%) Mean (ST486; 1.00E+00 microM): 55.2%
- Relative cell count (%) Mean (ST486; 1.00E-01 microM): 56.2%
- Relative cell count (%) Mean (ST486; 1.00E-02 microM): 57.6%
- Relative cell count (%) Mean (ST486; 1.00E-03 microM): 72.7%
- Relative cell count (%) Mean (ST486; 1.01E-04 microM): 90.5%
- Relative cell count (%) Mean (ST486; 3.16E-01 microM): 49.9%
- Relative cell count (%) Mean (ST486; 3.17E-02 microM): 55.2%
- Relative cell count (%) Mean (ST486; 3.17E-03 microM): 58.2%
- Relative cell count (%) Mean (ST486; 3.18E-04 microM): 77.5%
- Relative cell count (%) Mean (ST486; 3.18E-05 microM): 92.2%
- EC50 (ST486; [1]): 0.581 nM
- GI50 (ST486; [2]): 1.17 nM
- IC50 (ST486; [3]): > 1000 nM
- Cell Count Activity Area (NCI-H510A): 2.57
- Relative cell count (%) Mean (NCI-H510A; 1.00E+00 microM): 91.4%
- Relative cell count (%) Mean (NCI-H510A; 1.00E-01 microM): 84.2%
- Relative cell count (%) Mean (NCI-H510A; 1.00E-02 microM): 99.6%
- Relative cell count (%) Mean (NCI-H510A; 1.00E-03 microM): 92.3%
- Relative cell count (%) Mean (NCI-H510A; 1.01E-04 microM): 102.2%
- Relative cell count (%) Mean (NCI-H510A; 3.16E-01 microM): 88.0%
- Relative cell count (%) Mean (NCI-H510A; 3.17E-02 microM): 90.4%
- Relative cell count (%) Mean (NCI-H510A; 3.17E-03 microM): 95.4%
- Relative cell count (%) Mean (NCI-H510A; 3.18E-04 microM): 101.6%
- Relative cell count (%) Mean (NCI-H510A; 3.18E-05 microM): 129.0%
- EC50 (NCI-H510A; Homo sapiens, NCl-H510A, Lung, Small cell lung cancer (SCLC), summary Table 5, read-out: EC50): 0.072 nM
- EC50 (NCI-H510A; [1]): 0.0717 nM
- GI50 (NCI-H510A; [2]): > 1000 nM
- IC50 (NCI-H510A; [3]): > 1000 nM
